Biological target: Adenosylhomocysteinase (Bos taurus)
Experiment: Inhibitory activity against bovine liver S-adenosyl-L-homocysteine hydrolase (AdoHcy) rate of inactivation by NpcA

SMILES | Ki [nM]
C[C@@H]1C[C@@H](n2cnc3c(N)ncnc32)[C@H](O)[C@@H]1O | 5020
CC[C@H]1C[C@@H](n2cnc3c(N)ncnc32)[C@H](O)[C@@H]1O | 586
C=C[C@H]1C[C@@H](n2cnc3c(N)ncnc32)[C@H](O)[C@@H]1O | 22
Nc1ncnc2c1ncn2[C@@H]1C[C@H](c2ccccc2)[C@@H](O)[C@H]1O | 67600
C[C@H]1C[C@@H](n2cnc3c(N)ncnc32)[C@H](O)[C@@H]1O | 27
Nc1ncnc2c1ncn2[C@@H]1C=C[C@@H](O)[C@H]1O | 49
Nc1ncnc2c1ncn2[C@@H]1CC[C@@H](O)[C@H]1O [(1R,2S,3R)-3-(6-amino-9H-purin-9-yl)cyclopentane-1,2-diol] | 12
CC1=C[C@@H](n2cnc3c(N)ncnc32)[C@H](O)[C@@H]1O | 9150
